Measurements taken from patent US8008525B2, “Receptor function regulating agent” (Takeda Pharmaceutical Company Limited, priority 2003, dated 2011).

How the values were obtained:
human 14273 receptor = biological target: T1, human 14273 receptor (Homo sapiens, UniProt Q5NUL3); test: Test Example 1: regulating effect for 14273 receptor function (agonist effect), change in intracellular calcium level by FLIPR; type: cell-based; conditions: CHO cell line (No. 104) expressing human 14273 receptor, change of fluorescent intensity after 35 seconds
T1 construct: expressed in transfected cells
T1 sequence (Q5NUL3 1-361): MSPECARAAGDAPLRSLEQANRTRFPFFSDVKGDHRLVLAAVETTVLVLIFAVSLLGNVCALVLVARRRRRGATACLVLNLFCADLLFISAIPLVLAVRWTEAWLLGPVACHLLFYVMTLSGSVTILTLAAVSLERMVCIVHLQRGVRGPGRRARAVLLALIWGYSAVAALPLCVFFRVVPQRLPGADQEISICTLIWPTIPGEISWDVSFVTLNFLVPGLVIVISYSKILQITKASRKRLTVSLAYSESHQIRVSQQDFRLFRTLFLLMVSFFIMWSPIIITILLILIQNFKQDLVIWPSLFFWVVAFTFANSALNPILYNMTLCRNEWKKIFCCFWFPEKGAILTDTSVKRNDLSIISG
Description: CHO cell lines (No. 104) in which a human 14273 receptor has expressed was diluted to contain 3×10^4/100 μl cells, and dispensed in Black walled 96-well plate (Costar) at a density of 100 μl/well, followed by culturing overnight in a CO2 incubator. A change in intracellular calcium level was measured using FLIPR (Molecular Device). The method is described as below. 50 μg of Fluo-3AM (DOJIN) was dissolved in 21 μl of DMSO (DOJIN) and an equal volume of 20% pluronic acid (Molecular Probes) was added thereto, followed by mixing them. The mixture was added to 10.6 ml of the assay buffer [which is prepared by adding 10 ml of a solution, which is prepared by adding 20 ml of 1 M HEPES (pH 7.4, DOJIN) to 1 L of HBSS (Invitrogen), dissolving 710 mg of probenecid (Sigma) in 5 ml of 1 N NaOH, and further adding 5 ml of the above-mentioned HBSS/HEPES solution and mixing it.] supplemented with 105 μl of fetal bovine serum to prepare a fluorescent dye solution. The medium of the cell plate was removed, the fluorescent dye solution was dispensed in 100 μl each per well. The culturing was performed in a CO2 incubator for 1 hour to incorporate the fluorescent dye into the cells. The cells after culturing were washed with the assay buffer. The compounds to be added to the cells were diluted to each concentration with a buffer solution to which CHAPS (DOJIN) was added in 0.015%, and dispensed in a plate for the test sample. Following the pretreatment above, a change in intracellular calcium level after addition of the compound was determined with FLIPR to investigate the agonist effect. An EC50 value was calculated from dose-reaction curve using the change of fluorescent intensity after 35 seconds from the reaction initiation.

AtT-20 cells = test: Test Example 3: suppression of CRF-induced ACTH secretion in AtT-20 cells; type: cell-based, mouse; conditions: 10 μM of compound; 100 nM CRF; 90 minutes; adherent AtT-20 substrain
Description: Influence on ACTH secretion from mouse pituitary corticotrophic cell line AtT-20 cells was analyzed. […] This adherent AtT-20 cell substrain was cultured on a poly-D-lysine-coated 48-well plate at a density of 1×10^5 cells/well for 2 nights, which was provided for assay. […] After washing the cells once with this buffer, a predetermined concentration of the compound was added thereto, followed by addition of a buffer containing 100 nM of a corticotropin-releasing factor (CRF), and followed by culturing at 37° C. for 90 minutes in a CO2 incubator. Then, the plate was gently stirred, then centrifuged at 1200 rpm for 5 minutes at room temperature and the buffer was recovered from the intermediate layer. The ACTH concentration was determined using an ACTH assay kit (Mitsubishi Medical, ACTH IRMA “Yuka”).

EC50 (human 14273 receptor): ≤ 10 µM
Structure (SMILES): O=C(O)CCc1ccc(OCc2cccc(Oc3ccc(F)cc3)c2)c(F)c1 [Example 161, 3-(3-fluoro-4-{[3-(4-fluorophenoxy)benzyl]oxy}phenyl)propanoic acid]
lowering of the amount of ACTH secretion increased by CRF stimulation (AtT-20 cells): 49%
